{
  "source": "ChEMBL document CHEMBL4831521",
  "about": "“Dual High-Resolution α-Glucosidase and PTP1B Inhibition Profiling Combined with HPLC-PDA-HRMS-SPE-NMR Analysis for the Identification of Potentially Antidiabetic Chromene Meroterpenoids from Rhododendron capitatum” (J Nat Prod, 2021)",
  "key": {"Saccharomyces cerevisiae": {"system": "Saccharomyces cerevisiae", "assay": "Inhibition of Saccharomyces cerevisiae alpha-glucosidase at 100 uM using pNPG as substrate preincubated for 10 mins followed by substrate addition and measured for 35 mins by microplate photometric method", "settings": "time 45.0 min"}, "[1]": {"target": "T1, Tyrosine-protein phosphatase non-receptor type 1 (Homo sapiens, UniProt P18031)", "T1 sequence (P18031 whole entry)": "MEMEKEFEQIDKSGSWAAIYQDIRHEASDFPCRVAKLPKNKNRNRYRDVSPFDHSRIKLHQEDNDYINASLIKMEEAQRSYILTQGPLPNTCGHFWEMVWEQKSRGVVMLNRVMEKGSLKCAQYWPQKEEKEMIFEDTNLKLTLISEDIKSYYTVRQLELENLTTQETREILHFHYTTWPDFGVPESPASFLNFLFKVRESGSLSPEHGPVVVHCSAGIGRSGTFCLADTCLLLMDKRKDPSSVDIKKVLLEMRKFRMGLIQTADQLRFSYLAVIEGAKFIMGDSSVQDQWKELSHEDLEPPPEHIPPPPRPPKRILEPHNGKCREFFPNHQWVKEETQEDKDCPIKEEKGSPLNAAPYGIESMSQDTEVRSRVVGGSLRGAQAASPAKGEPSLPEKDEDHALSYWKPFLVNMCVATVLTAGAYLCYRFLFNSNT", "assay": "Inhibition of human recombinant PTP1B (1 to 322 residues) expressed in Escherichia coli using pNPP as substrate preincubated with substrate for 10 mins followed by enzyme addition and measured for 10 mins by absorbance based analysis"}, "[2]": {"assay": "Inhibition of Saccharomyces cerevisiae alpha-glucosidase using pNPG as substrate preincubated for 10 mins followed by substrate addition and measured for 35 mins by microplate photometric method"}},
  "data": [
    {"smiles": "CO[C@@](C)(CCC=C(C)C)[C@H](O)CC[C@]1(C)C=Cc2c(cc(C)c(C(=O)O)c2O)O1", "note": "(relative stereo)", "values": [
      {"measurement": "inhibition", "setting": "Saccharomyces cerevisiae", "result": 23.8, "unit": "%"},
      {"measurement": "IC50", "setting": "[1]", "result": 53.6, "unit": "µM"}
    ]},
    {"smiles": "CO[C@](C)(CCC=C(C)C)[C@H](O)CC[C@]1(C)C=Cc2c(cc(C)c(C(=O)O)c2O)O1", "note": "(mixture of isomers)", "values": [
      {"measurement": "inhibition", "setting": "Saccharomyces cerevisiae", "result": 15.6, "unit": "%"}
    ]},
    {"smiles": "C/C(=C\\CC[C@]1(C)C=Cc2c(cc(C)c(C(=O)O)c2O)O1)C/C=C\\C(C)(C)O", "values": [
      {"measurement": "IC50", "setting": "[1]", "result": 68.1, "unit": "µM"}
    ]},
    {"smiles": "C=C(C)[C@H](O)CC/C(C)=C/CC[C@]1(C)C=Cc2c(cc(C)c(C(=O)O)c2O)O1", "values": [
      {"measurement": "inhibition", "setting": "Saccharomyces cerevisiae", "result": 99.6, "unit": "%"},
      {"measurement": "IC50", "setting": "[2]", "result": 21.2, "unit": "µM"},
      {"measurement": "IC50", "setting": "[1]", "result": 10.3, "unit": "µM"}
    ]},
    {"smiles": "CC(C)=CCC[C@@](C)(O)[C@H](O)CC[C@]1(C)C=Cc2c(cc(C)c(C(=O)O)c2O)O1", "note": "(relative stereo)", "values": [
      {"measurement": "inhibition", "setting": "Saccharomyces cerevisiae", "result": -1.8, "unit": "%"}
    ]},
    {"smiles": "C=C(C)/C=C/C/C(C)=C/CC[C@]1(C)C=Cc2c(cc(C)c(C(=O)O)c2O)O1", "values": [
      {"measurement": "inhibition", "setting": "Saccharomyces cerevisiae", "result": 27.5, "unit": "%"},
      {"measurement": "IC50", "setting": "[1]", "result": 19.9, "unit": "µM"}
    ]},
    {"smiles": "C=C(C)[C@H](O)CCC(=C)[C@H](O)CC[C@]1(C)C=Cc2c(cc(C)c(C(=O)O)c2O)O1", "values": [
      {"measurement": "inhibition", "setting": "Saccharomyces cerevisiae", "result": 63.5, "unit": "%"},
      {"measurement": "IC50", "setting": "[2]", "result": 93.5, "unit": "µM"},
      {"measurement": "IC50", "setting": "[1]", "result": 36.3, "unit": "µM"}
    ]},
    {"smiles": "Cc1c(O)c(C)c2c(c1O)C(=O)C[C@@H](c1ccc(O)cc1)O2", "values": [
      {"measurement": "inhibition", "setting": "Saccharomyces cerevisiae", "result": 11.2, "unit": "%"}
    ]},
    {"smiles": "CC(C)=CCC[C@](C)(O)[C@H](O)CC[C@]1(C)C=Cc2c(cc(C)c(C(=O)O)c2O)O1", "note": "(mixture of isomers)", "values": [
      {"measurement": "inhibition", "setting": "Saccharomyces cerevisiae", "result": -1.8, "unit": "%"}
    ]},
    {"smiles": "C=C(CCC=C(C)C)[C@H](O)CC[C@]1(C)C=Cc2c(cc(C)c(C(=O)O)c2O)O1", "values": [
      {"measurement": "inhibition", "setting": "Saccharomyces cerevisiae", "result": 99.8, "unit": "%"},
      {"measurement": "IC50", "setting": "[2]", "result": 18.6, "unit": "µM"},
      {"measurement": "IC50", "setting": "[1]", "result": 6, "unit": "µM"}
    ]},
    {"smiles": "C[C@H]1O[C@H](O[C@H]2[C@H](O)[C@@H](O)[C@@H](O[C@H]3[C@H](O)[C@@H](O)C(O)O[C@@H]3CO)O[C@@H]2CO)[C@H](O)[C@@H](O)[C@@H]1N[C@H]1C=C(CO)[C@@H](O)[C@H](O)[C@H]1O", "note": "(some centres undefined) [ACARBOSE]", "values": [
      {"measurement": "IC50", "setting": "[2]", "result": 796, "unit": "µM"}
    ]},
    {"smiles": "CC(C)=CCC/C(C)=C/CC/C(C)=C/Cc1c(O)cc(C)c(C(=O)O)c1O", "note": "[GRIFOLIC ACID]", "values": [
      {"measurement": "inhibition", "setting": "Saccharomyces cerevisiae", "result": 99.7, "unit": "%"},
      {"measurement": "IC50", "setting": "[2]", "result": 8, "unit": "µM"},
      {"measurement": "IC50", "setting": "[1]", "result": 3.6, "unit": "µM"}
    ]},
    {"smiles": "C=C(C/C=C/C(C)(C)O)[C@H](O)CC[C@]1(C)C=Cc2c(cc(C)c(C(=O)O)c2O)O1", "values": [
      {"measurement": "inhibition", "setting": "Saccharomyces cerevisiae", "result": 36.9, "unit": "%"},
      {"measurement": "IC50", "setting": "[1]", "result": 28.2, "unit": "µM"}
    ]},
    {"smiles": "COC(C)(C)[C@H](O)CC/C(C)=C/CC[C@]1(C)C=Cc2c(cc(C)c(C(=O)O)c2O)O1", "values": [
      {"measurement": "inhibition", "setting": "Saccharomyces cerevisiae", "result": 17.2, "unit": "%"}
    ]},
    {"smiles": "Cc1c(O)cc(O)c2c1O[C@H](c1ccc(O)cc1)CC2=O", "values": [
      {"measurement": "inhibition", "setting": "Saccharomyces cerevisiae", "result": 14.4, "unit": "%"}
    ]},
    {"smiles": "CC(C)=CCC/C(C)=C/CC[C@]1(C)C=Cc2c(cc(C)c(C(=O)O)c2O)O1", "values": [
      {"measurement": "inhibition", "setting": "Saccharomyces cerevisiae", "result": 99.9, "unit": "%"},
      {"measurement": "IC50", "setting": "[2]", "result": 10.6, "unit": "µM"},
      {"measurement": "IC50", "setting": "[1]", "result": 2.5, "unit": "µM"}
    ]}
  ]
}
